Columns and labels:
[1] = molecular target: RAC-beta serine/threonine-protein kinase (Homo sapiens, UniProt P31751); assay: Kinase Assay: His-tagged human recombinant kinase full-length Akt2 expressed in insect cells and activated by PDK1 was purchased form Invitrogen (part number PV 3975). As substrate for the kinase reaction the biotinylated peptide biotin-Ahx-[…] (C-terminus in amide form) was used which can be purchased e.g. from the company Biosynthan GmbH (Berlin-Buch, Germany). For the assay 50 nl of a 100 fold concentrated solution of the test compound in DMSO was pipetted into a black low volume 384 well microtiter plate (Greiner Bio-One, Frickenhausen, Germany), 2 μl of a solution of Akt2 in assay buffer [50 mM TRIS/HCl pH 7.5, 5 mM MgCl2, 1 mM dithiothreitol, 0.02% (v/v) Triton X-100 (Sigma)] were added and the mixture was incubated for 15 min at 22° C. to allow pre-binding of the test compounds to the enzyme before the start of the kinase reaction. Then the kinase reaction was started by the addition of 3 μl of a solution of adenosine-tri-phosphate (ATP, 16.7 μM=>final conc. in the 5 μl assay volume is 10 μM) and substrate (1.67 μM=>final conc. in the 5 μl assay volume is 1 μM) in assay buffer and the resulting mixture was incubated for a reaction time of 60 min at 22° C. The concentration of Akt2 in the assay was adjusted depending of the activity of the enzyme lot and was chosen appropriate to have the assay in the linear range, typical enzyme concentrations were in the range of about 0.2 ng/μl (final conc. in the 5 μl assay volume). The reaction was stopped by the addition of 5 μl of a solution of HTRF detection reagents (200 nM streptavidine-XL665 [Cisbio] and 1.5 nM anti-phosho-Serine antibody [Millipore, cat. #35-001] and 0.75 nM LANCE Eu-W 1024 labeled anti-mouse IgG antibody [Perkin Elmer]) in an aqueous EDTA-solution (100 mM EDTA, 0.1% (w/v) bovine serum albumin in 50 mM HEPES/NaOH pH 7.5). The resulting mixture was incubated 1 h at 22° C. to allow the binding of the biotinylated phosphorylated peptide to the streptavidine-XL665 and the antibodies.
Sequence of RAC-beta serine/threonine-protein kinase (P31751 whole entry): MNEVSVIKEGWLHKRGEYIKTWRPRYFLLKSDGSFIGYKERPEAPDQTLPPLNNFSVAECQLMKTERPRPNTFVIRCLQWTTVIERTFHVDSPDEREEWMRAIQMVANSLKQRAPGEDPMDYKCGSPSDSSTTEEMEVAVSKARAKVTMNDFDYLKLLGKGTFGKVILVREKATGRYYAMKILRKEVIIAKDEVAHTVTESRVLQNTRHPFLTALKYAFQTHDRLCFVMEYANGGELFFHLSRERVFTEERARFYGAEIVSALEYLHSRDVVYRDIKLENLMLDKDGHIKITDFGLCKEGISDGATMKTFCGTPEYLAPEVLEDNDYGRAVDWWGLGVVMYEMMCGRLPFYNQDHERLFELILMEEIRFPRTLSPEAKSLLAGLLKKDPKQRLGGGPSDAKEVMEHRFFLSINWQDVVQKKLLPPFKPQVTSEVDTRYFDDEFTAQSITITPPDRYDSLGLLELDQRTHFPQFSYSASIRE

[2] = molecular target: RAC-alpha serine/threonine-protein kinase (Homo sapiens, UniProt P31749); assay: Kinase Assay: For the assay 50 nl of a 100 fold concentrated solution of the test compound in DMSO was pipetted into a black low volume 384 well microtiter plate (Greiner Bio-One, Frickenhausen, Germany), 2 μl of a solution of Akt1 in assay buffer [50 mM TRIS/HCl pH 7.5, 5 mM MgCl2, 1 mM dithiothreitol, 0.02% (v/v) Triton X-100 (Sigma)] were added and the mixture was incubated for 15 min at 22° C. to allow pre-binding of the test compounds to the enzyme before the start of the kinase reaction. Then the kinase reaction was started by the addition of 3 μl of a solution of adenosine-tri-phosphate (ATP, 16.7 μM=>final conc. in the 5 μl assay volume is 10 μM) and substrate (1.67 μM=>final conc. in the 5 μl assay volume is 1 μM) in assay buffer and the resulting mixture was incubated for a reaction time of 60 min at 22° C. The concentration of Akt1 in the assay was adjusted depending of the activity of the enzyme lot and was chosen appropriate to have the assay in the linear range, typical enzyme concentrations were in the range of about 0.05 ng/μl (final conc. in the 5 μl assay volume). The reaction was stopped by the addition of 5 μl of a solution of HTRF detection reagents (200 nM streptavidine-XL665 [Cisbio] and 1.5 nM anti-phosho-Serine antibody [Millipore, cat. #35-001] and 0.75 nM LANCE Eu-W 1024 labeled anti-mouse IgG antibody [Perkin Elmer]) in an aqueous EDTA-solution (100 mM EDTA, 0.1% (w/v) bovine serum albumin in 50 mM HEPES/NaOH pH 7.5). The resulting mixture was incubated 1 h at 22° C. to allow the binding of the biotinylated phosphorylated peptide to the streptavidine-XL665 and the antibodies. Subsequently the amount of phosphorylated substrate was evaluated by measurement of the resonance energy transfer from the anti-mouse-IgG-Eu-Chelate to the streptavidine-XL665. Therefore, the fluorescence emissions at 620 nm and 665 nm after excitation at 350 nm was measured in a HTRF reader, e.g. a Rubystar (BMG Labtechnologies, Offenburg, Germany) or a Viewlux (Perkin-Elmer).
Sequence of RAC-alpha serine/threonine-protein kinase (P31749 whole entry): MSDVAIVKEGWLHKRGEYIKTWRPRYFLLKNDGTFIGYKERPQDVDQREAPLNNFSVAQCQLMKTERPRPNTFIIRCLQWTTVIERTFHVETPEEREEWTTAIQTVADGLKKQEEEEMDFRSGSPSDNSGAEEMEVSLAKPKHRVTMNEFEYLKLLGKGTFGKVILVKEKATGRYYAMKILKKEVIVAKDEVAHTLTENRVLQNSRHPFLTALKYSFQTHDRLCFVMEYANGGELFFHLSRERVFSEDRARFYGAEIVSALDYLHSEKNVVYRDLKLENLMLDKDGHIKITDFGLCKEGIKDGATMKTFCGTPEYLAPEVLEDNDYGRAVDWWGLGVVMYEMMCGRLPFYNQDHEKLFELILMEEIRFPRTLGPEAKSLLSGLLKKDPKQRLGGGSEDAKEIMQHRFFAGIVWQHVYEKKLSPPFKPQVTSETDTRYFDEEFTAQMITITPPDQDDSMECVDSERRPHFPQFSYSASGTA

IC50 [1] [nM] | IC50 [2] [nM] | SMILES
110 | 65 | NC(=O)c1ccnn2c(-c3ccccc3)c(-c3ccc(C4(N)CCC4)cc3)nc12
70 | 120 | NC1(c2ccc(-c3nc4ccc(C(F)(F)F)nn4c3-c3ccccc3)cc2)CCC1
56 | 45 | CCOc1nn2c(-c3ccccc3)c(-c3ccc(C4(N)CCC4)cc3)nc2c(C)c1C

Source: ChEMBL document CHEMBL5726044, “Imidazopyridazines as Akt kinase inhibitors” (2017)
